Measurements published in US8507464B2, “Phosphoramidate alkylator prodrugs” (Threshold Pharmaceuticals, Inc., priority 2005, dated 2013).
Where two headings read alike, the source gives them in different places.

Assays:
PC3 cells = assay: Antiproliferation assay (Alamar Blue), anoxia vs air; conditions: Homo sapiens, PC-3, 2 h
HT29 cells = assay: Antiproliferation assay - oxygen dependence; assay type: cell-based; conditions: Homo sapiens
Text: . […] The calculated IC50 values (μM) are tabulated in Table Y1 (H460 cells) or Table Y2 (HT29 cells) below.

Irs1SF = assay: Clonogenic survival - DNA mutant repair cells; conditions: Cricetulus griseus
[1] = tested on: human (HLM) liver microsomal proteins; assay: Metabolic stability in liver microsomal protein; assay type: in vitro ADME; conditions: Table 2A, second study, 5 μM
HT29 spheroids = assay: Spheroid model, clonogenic survival; assay type: cell-based; conditions: Homo sapiens, HT-29, read-out: IC90 HT29 Spheroid 10% O2
NCI-H460 cells = assay: Clonogenic assay - oxygen dependence; conditions: Homo sapiens
[2] = In vivo plasma or tumor pharmacokinetics of Compound 25 (Table 4); set-up: species or system CD-1 mice (nude mice where noted)
[3] = 50 mg/kg i.v., 30% PEG/70% Saline, CD-1 mice
[4] = CD-1, mouse, plasma, ip, 25 mg/kg, 25 mg/kg i.p., 10% PEG, CD-1 mice
[5] = CD-1, mouse, plasma, ip, 50 mg/kg, 50 mg/kg i.p., Saline, CD-1 mice
[6] = CD-1, mouse, plasma, iv, 50 mg/kg, 50 mg/kg i.v., 30% PEG/70% Saline, CD-1 mice
[7] = CD-1, mouse, plasma, po, 50 mg/kg, 50 mg/kg p.o., Saline, CD-1 mice
[8] = CD-1, mouse, plasma, po, 100 mg/kg, 100 mg/kg p.o., Saline, CD-1 mice
[9] = nude, mouse, plasma, ip, 150 mg/kg, 150 mg/kg i.p., Saline, nude mice with H460 tumor
[10] = nude, mouse, tumor, ip, 150 mg/kg, 150 mg/kg i.p., Saline, nude mice with H460 tumor, Tumor PK

With `Cn1c(COP(=O)(NCCBr)NCCBr)cnc1[N+](=O)[O-]` [Compound 25] the IC50 (PC3 cells; read-out: IC50 PC3 Air) was greater than 100 µM, the IC50 (PC3 cells; read-out: IC50 PC3 Anoxia) was 0.6 µM and the IC50 (HT29 cells; HT-29, read-out: IC50 in HT29 cells, 0.6% O2) was 25 µM. For the same compound, the IC50 (HT29 cells; HT-29, read-out: IC50 in HT29 cells, Air) was greater than 100 µM, the IC50 (HT29 cells; HT-29, read-out: IC50 in HT29 cells, N2) was 2 µM and the IC90 (Irs1SF; read-out: IC90 Irs1SF Air) was 20 µM. The IC90 (Irs1SF; read-out: IC90 Irs1SF N2) was 0.02 µM, the “Metabolic stability (% at 30 min) HLM” value [1] was 127% and the IC90 (HT29 spheroids) was 29 µM. The IC90 (NCI-H460 cells; NCI-H460, read-out: IC90 H460 0.1% O2) was 0.4 µM, the IC90 (NCI-H460 cells; NCI-H460, read-out: IC90 H460 0.6% O2) was 5 µM and the IC90 (NCI-H460 cells; NCI-H460, read-out: IC90 H460 Air) was 30 µM. For the same compound, the IC90 (NCI-H460 cells; NCI-H460, read-out: IC90 H460 N2) was 0.1 µM, the AUC [2, 3] was 177 µg·h/mL and the half-life [2, 3] was 10.1 min. For the same compound, the Cmax [2, 4] was 6.33 µg/mL, the Tmax [2, 4] was 45 min and the AUC ([2]; CD-1, mouse, plasma, ip, 25 mg/kg, 25 mg/kg i.p., 10% PEG, CD-1 mice, read-out: AUC) was 247 µg·h/mL. For the same compound, the half-life ([2]; CD-1, mouse, plasma, ip, 25 mg/kg, 25 mg/kg i.p., 10% PEG, CD-1 mice, read-out: Half-life) was 4.43 min, the AUC ([2]; CD-1, mouse, plasma, ip, 50 mg/kg, 50 mg/kg i.p., 30% PEG/70% Saline, CD-1 mice, read-out: AUC) was 438 µg·h/mL and the half-life ([2]; CD-1, mouse, plasma, ip, 50 mg/kg, 50 mg/kg i.p., 30% PEG/70% Saline, CD-1 mice, read-out: Half-life) was 11 min. For the same compound, the Cmax [2, 5] was 38.5 µg/mL, the Tmax [2, 5] was 5 min and the AUC ([2]; CD-1, mouse, plasma, ip, 50 mg/kg, 50 mg/kg i.p., Saline, CD-1 mice, read-out: AUC) was 635 µg·h/mL. For the same compound, the half-life ([2]; CD-1, mouse, plasma, ip, 50 mg/kg, 50 mg/kg i.p., Saline, CD-1 mice, read-out: Half-life) was 7.91 min, the Cmax [2, 6] was 27.5 µg/mL and the Tmax [2, 6] was 2 min. For the same compound, the AUC ([2]; CD-1, mouse, plasma, iv, 50 mg/kg, 50 mg/kg i.v., 30% PEG/70% Saline, CD-1 mice, read-out: AUC) was 325 µg·h/mL, the half-life ([2]; CD-1, mouse, plasma, iv, 50 mg/kg, 50 mg/kg i.v., 30% PEG/70% Saline, CD-1 mice, read-out: Half-life) was 6.7 min and the Cmax [2, 7] was 0.93 µg/mL. For the same compound, the Tmax [2, 7] was 15 min, the AUC ([2]; CD-1, mouse, plasma, po, 50 mg/kg, 50 mg/kg p.o., Saline, CD-1 mice, read-out: AUC) was 40.4 µg·h/mL and the half-life ([2]; CD-1, mouse, plasma, po, 50 mg/kg, 50 mg/kg p.o., Saline, CD-1 mice, read-out: Half-life) was 25.7 min. For the same compound, the Cmax [2, 8] was 15.8 µg/mL, the Tmax [2, 8] was 15 min and the AUC ([2]; CD-1, mouse, plasma, po, 100 mg/kg, 100 mg/kg p.o., Saline, CD-1 mice, read-out: AUC) was 784 µg·h/mL. For the same compound, the half-life ([2]; CD-1, mouse, plasma, po, 100 mg/kg, 100 mg/kg p.o., Saline, CD-1 mice, read-out: Half-life) was 95.2 min, the bioavailability ([2]; mouse, plasma, po, 50 mg/kg p.o., Saline, CD-1 mice, read-out: F (Bioavailability)) was 13.6% and the Cmax [2, 9] was 90.1 µg/mL. The Tmax [2, 9] was 5 min, the AUC ([2]; nude, mouse, plasma, ip, 150 mg/kg, 150 mg/kg i.p., Saline, nude mice with H460 tumor, plasma, read-out: AUC) was 1240 µg·h/mL and the half-life ([2]; nude, mouse, plasma, ip, 150 mg/kg, 150 mg/kg i.p., Saline, nude mice with H460 tumor, plasma, read-out: Half-life) was 58.7 min. For the same compound, the Cmax [2, 10] was 3.38 µg/mL, the Tmax [2, 10] was 15 min and the AUC ([2]; nude, mouse, tumor, ip, 150 mg/kg, 150 mg/kg i.p., Saline, nude mice with H460 tumor, Tumor PK, read-out: AUC) was 307 µg·h/mL.
